The results in this text go back to patent US10023902B2, “Methods for detecting enzyme activity using fluorescence lifetime imaging” (Purdue Research Foundation, priority 2012, dated 2018).

Residues, ends and D or L forms follow the SMILES beside them. No end group written: not given here. *: point of attachment. X1 = C[N+]1=C(C=CC=CC=C2N(CCCCCC(=O)NCCN3C(=O)CC(*)C3=O)c3ccccc3C2(C)C)C(C)(C)c2ccccc21; Cy5 = Cy5 fluorophore label on the Cys side chain

One data set relates to Abl kinase. The data set is described as follows: Biosensor Cy5 fluorescence lifetime analysis in live MEFs (FLIM). The note with it: control MEFs expressing Abl kinase, 50 nM, 24 h; non-parametric ANOVA, P<0.05. Type of data set: cell-based, mouse. The method, then: With reference to FIG. 3, WT MEF cells (unless otherwise indicated) were cultured on cover slips and incubated with the biosensor peptide or a control (as indicated, 50 nM for each) for 24 h, then imaged using the FLIM system. Data were extracted from raw FLIM images and represented as lifetime maps of autofluorescence, Cy5 only, Abl-TAT in Abl (−/−) MEFs, Abl-TAT in WT MEFs, Abl-F-mutant, Abl-phospho. With reference to FIG. 3A, fluorophore lifetime per cell was averaged for at least 20 cells in 3-5 replicate experiments and plotted as a distribution of lifetimes observed in each condition. Error bars represent standard error of the mean for each lifetime value. […] Error bars represent SEM.
Cover slips were washed with PBS and imaged immediately.
Average lifetimes per cell for multiple cells were calculated and plotted to show the distribution of lifetimes observed for the biosensor and each control (FIG. 3G). The distributions were determined to be non-Gaussian, so non-parametric ANOVA with a Dunn's post-test was used to evaluate statistical significance (P<0.05) for differences in the mean lifetimes. […] These experiments confirmed that the increase in Cy5 lifetime was specific and due to Abl-dependent phosphorylation of the biosensor peptide on tyrosine. […]

The test system of the next data set is MEFs. The note with it: FCS, Cy5 alone vs biosensor. The procedure: Sequestration of the biosensor in endosomes was tested by staining for an endosomal marker. […] Peptide degradation, a potential issue in some cell types, was also examined.
The test system of the next data set is Syk kinase. As to the kind of experiment: FLIM detection of Syk kinase activity with SAStide-TAT biosensor in MCF7 breast cancer cells. Type of data set: cell-based.

On to “Abl-F-mutant: analog having a phenylalanine substitution for the tyrosine residue of the Abltide-TAT biosensor, SEQ ID NO:3 (EAIYAAP)”, for which the “mean Cy5 fluorescence lifetime per cell” value with Abl kinase is “significantly lower mean lifetimes than both Abl-TAT in MEFs expressing Abl kinase and Abl-phospho”.
In the case of `CCN1/C(=C/C=C/C=C/C2=[N+](CCCCCC(=O)O)c3ccc(S(=O)(=O)O)cc3C2(C)C)C(C)(C)c2cc(S(=O)(=O)[O-])ccc21` [Cy5, reference compound], the “mean Cy5 fluorescence lifetime per cell” value in the data set with Abl kinase is “significantly lower mean lifetimes than both Abl-TAT in MEFs expressing Abl kinase and Abl-phospho”.
As for `CC[C@H](C)[C@H](NC(=O)[C@H](C)NC(=O)[C@H](CCC(=O)O)NC(=O)CNC(=O)CN)C(=O)N[C@@H](Cc1ccc(O)cc1)C(=O)N[C@@H](C)C(=O)N[C@@H](C)C(=O)N1CCC[C@H]1C(=O)N[C@@H](CSC1CC(=O)N(CCNC(=O)CCCCCN2C(=CC=CC=CC3=[N+](C)c4ccccc4C3(C)C)C(C)(C)c3ccccc32)C1=O)C(=O)NCC(=O)NCC(=O)N[C@@H](CCCNC(=N)N)C(=O)N[C@@H](CCCCN)C(=O)N[C@@H](CCCCN)C(=O)N[C@@H](CCCNC(=N)N)C(=O)N[C@@H](CCCNC(=N)N)C(=O)N[C@@H](CCC(N)=O)C(=O)N[C@@H](CCCNC(=N)N)C(=O)N[C@@H](CCCNC(=N)N)C(=O)N[C@@H](CCCNC(=N)N)C(=O)N1CCC[C@H]1C(=O)N[C@@H](CCC(N)=O)C(=O)O` (some centres unmarked) [Abl-TAT] (H-GGEAIYAAPC(X1)GGRKKRRQRRRPQ-OH), in the data set on MEFs, the “peptide degradation to free Cy5” value is recorded as “not degraded to free Cy5”.
Take `COc1cc(Nc2ncc(F)c(Nc3ccc4c(n3)N(COP(=O)(O)O)C(=O)C(C)(C)O4)n2)cc(OC)c1OC` [fostamatinib, reference compound]: the “regions of increased Cy5 lifetime after inhibitor pre-treatment” value in the data set with Syk kinase (Syk +/+ cells pre-treated with SAStide-TAT-Cy5 biosensor and inhibitor, 1 hour) is on record as “no regions of increased lifetime were observed”.
Regarding “DEEDYEEPDEPGGCCy5GGRKKRRQRRRPQ (DEEDYEEPDEPGGC(Cy5)GGRKKRRQRRRPQ) [SAStide-TAT, Cy5-labeled Syk substrate peptide]”, in the data set on Syk kinase (active Syk-expressing cells, pervanadate (Syk activation conditions), co-localizes with decreased EGFP lifetime), the “Cy5 lifetime shift of biosensor” value was “increased Cy5 lifetime”.
